Results taken from patent publication US20020032918A1, “Alteration of growth and adaptation under hypoxic conditions” (priority 2000, published 2002).

Columns and labels:
[1] = test system: seedlings of a submergence intolerant cultivar; conditions: elongation response inhibited by spraying; cited from earlier work
[2] = test system: endogenous ABA and GA1 levels in internodes; conditions: cited from earlier work
[3] = test system: SH2A gene expression; test: Northern blot analysis of SH2A transcript abundance in isolated deepwater rice stem segments treated with hormone or inhibitor solutions; type: cell-based, Oryza sativa L.
Description: Seeds of deepwater rice (Oryza sativa L., Pin Gaew 56) were obtained from the International Rice Research Institute (Los Baños, The Philippines). Plants were grown for 12 to 14 weeks as described (Sauter, 1997). All experiments were carried out under continuous light (200 μE/m^−2 s^−1) at 25° C. in a growth chamber. For submergence treatment, whole plants were placed in a 600 liter plastic barrel filled with tap water as described (Lorbiecke and Sauter, 1999). Control plants were kept in the same growth chamber. Analysis of hormone and inhibitor effects was performed using excised stem segments containing the upper highest growth responsive internode. (Raskin and Kende, 1984). Stem segments were incubated in 150 ml beakers with 25 ml aqueous solutions containing the indicated concentrations of gibberellin A3 (GA3) or the hormone precursor ethephon (2-chlorethanephosphoric acid, E) or water alone as a control. Control segments were incubated for 0.5 or 3 h in water. For ethephon treatment stem segments were preincubated for 0.5 h in water before adding ethephon for 2.5 h.
To guarantee high humidity, the beakers were placed in plastic cylinders. Ethylene action was inhibited using 2,5-norbornadiene (bicyclo[2.2.1]hepta-2,5-diene, NBD) at a concentration of 50 μl/l in the gas phase as described (Lorbiecke and Sauter, 1999).
To inhibit protein synthesis, stem sections were incubated with aqueous solutions of cycloheximide for 3 hours at the concentrations indicated.
To determine submergence-dependent gene expression, mRNA abundance of SH2A and SH2B was analysed by RNA gel blot hybridization. RNA was isolated from different zones of the youngest internode and from adventitious roots of the third node from airgrown or partially submerged deepwater rice plants. Thus, tissue sections of the highest internode, 0-5 mm above the second node and containing the intercalary meristem; 5-15 mm above the second node containing the elongation zone; and 15-30 mm above the second node and containing the differentiation zone were used (Lorbiecke and Sauter, 1997). Adventitious roots of the third node were isolated as described (Lorbiecke and Sauter, 1999). The tissues were immediately frozen in liquid nitrogen and stored at −70° C. until RNA extraction. Total RNA was isolated with the TRIzol reagent (Gibco BRL) and precipitated with 4 M LiCl as described (Puissant and Houdebine, 1990, Lorbiecke and Sauter, 1999). RNA separation and Northern blot hybridization were carried out as described previously (Lorbiecke and Sauter, 1998). For RNA blot analysis, 20 μg of total RNA was separated by electrophoresis on a 1% (w/v) agarose gel containing 6% formaldehyde. The RNA was blotted to a nylon membrane (Hybond N+; Amersham, Braunschweig, Germany) according to Lorbiecke and Sauter (1998). For hybridization, gene-specific cDNA-fragments covering the 3′-regions of SH2A (nt 496-867) and SH2B (nt 513-980) were random prime labelled with 32P using the ‘Rediprime Labelling Kit’ (Amersham, Braunschweig, Germany). Hybridization was carried out overnight at 68° C. in 1% SDS, 1 M NaCl, 10% (w/v) dextran sulfate and heat-denatured salmon sperm DNA. The blots were washed once in 1× SSC (0.15 M NaCl, 15 mM Na-citrate, pH 7.0) at 68° C. and once in 1× SSC, 1% (w:v) SDS at 68° C. for 10 min each (Sauter, 1997).
To analyse the hormone-dependent expression of the SH2A gene, isolated stem segments containing the youngest internode were treated with different hormone or inhibitor solutions for 2.5 hours. Total RNAs were isolated from the regions containing the intercalary meristem and the elongation zone and were analysed for SH2A transcript abundance (FIG. 8a).

**Q.** With CC(C)(C)[C@@H](O)[C@@H](Cc1ccc(Cl)cc1)n1cncn1 (racemic) [paclobutrazol] as the compound, how does the survival of seedlings [1] read?
**A.** The survival of seedlings was “greatly enhanced”.

**Q.** What does the source list for C=C [ethylene]?
**A.** increase of endogenous GA1 levels ([2]; at the same time (within three hours)): four-fold; reduction of endogenous ABA levels in internodes ([2]; within three hours of application of ethylene): 75%

**Q.** Which SH2A transcript levels ([3]; incubation with 50 μM GA3, after 2.5 h, compared with controls) does the source give for C=C1C[C@]23C[C@@]1(O)CC[C@H]2[C@@]12C=C[C@H](O)[C@@](C)(C(=O)O1)[C@H]2[C@@H]3C(=O)O [GA3, gibberellin A3] here?
**A.** Its SH2A transcript levels is “did not result in increased SH2A transcript levels”.

**Q.** Which “induction of SH2A gene expression in the presence of the protein synthesis inhibitor” value ([3]; 150 μM ethephon with cycloheximide, intercalary meristem) does the source give for C[C@@H]1C[C@@H]([C@H](O)CC2CC(=O)NC(=O)C2)C(=O)[C@@H](C)C1 [cycloheximide] here?
**A.** Its value is “occurred”.

**Q.** What about the “cycloheximide concentration required for SH2A gene induction” value ([3]; dose response, 3 h, intercalary meristem) of the same compound?
**A.** The value was no less than 20 µg/mL.

**Q.** What about the “SH2A transcripts after treatment with CHX alone” value ([3]; stem segments, 3 h, intercalary meristem) of the same compound?
**A.** The value was “accumulation of SH2A transcripts”.

**Q.** With C1=CC2C=CC1C2 [norbornadiene, bicyclo[2.2.1]hepta-2,5-diene] as the compound, how does the SH2A transcript levels ([3]; ethephon in combination with norbornadiene at 50 μl/l in the gas phase) read?
**A.** The SH2A transcript levels was “reduced to control levels”.

**Q.** Which “SH2A mRNA levels between 2 and 6 hours” value ([3]; 150 μM ethephon, meristem and elongation zone) does the source give for O=P(O)(O)CCCl [ethephon, 2-chloroethanephosphoric acid] here?
**A.** The value was “declined to control levels”.

**Q.** And the “time of maximal SH2A mRNA abundance” value ([3]; 150 μM ethephon, meristem and elongation zone, RNA at 1 hour intervals)?
**A.** The value was 2 h.

**Q.** And the “lowest ethephon concentration inducing SH2A transcript accumulation” value ([3]; 2.5 hours, 0.015-150 μM tested, intercalary meristem)?
**A.** The value was 1.5 µM.

**Q.** And the SH2A transcript levels ([3]; stem segments treated with 150 μM ethephon, 2.5 h, intercalary meristem and elongation zone)?
**A.** The SH2A transcript levels was “strong increase”.
